Source: patent publication US12161669B2, “Compositions and methods for cell targeting therapies” (UMC UTRECHT HOLDING B.V., priority 2017, dated 2024)

How the values were obtained:
Daudi cells = experiment: sTCR YG-bead conjugation to Daudi cells; format: binding; conditions: with vs without PAM
Excerpt: The extracellular domains of the TCR chains were amplified from synthetic DNA encoding the full length TCRs. The domain boundaries were based on ones published before for Vγ9Vδ2 TCR G115. The TCR chains were ligated in to a modified pBullet vector containing a μ-phosphatase signal peptide at the 5′ end and fos zipper at the 3′ end of the construct. The TCRγ chains were ligated in a modified pBullet vector containing a μ-phosphatase signal peptide at the 5′ end and at the 3′ a jun zipper followed by a biotin acceptor peptide and a poly-histidine tag. Synthetic DNA encoding for the bacterial biotin ligase BirA was also ligated in a pBullet vector containing a signal peptide. The expression of soluble γδTCRs was done in Freestyle 293-F cells (ThermoFisher). In short, plasmids containing TCRδ, TCRγ and BirA were mixed into a 45:45:10 ratio, combined with polyethylenimine (PEI) in a 2:3 ratio and incubated for 15′ at room temperature. […]
For tetramer and dextramer staining, 1.0*10^5 cells were incubated with 30 ul tetramer or dextramer solution (100 nM with respect to SA-PE) for 30 minutes at R.T. For beads staining, 7.5*10^4 cells were incubated with 20 μl sTCR-YG-beads (0.33 mg beads/ml) for 30. […] Samples were washed once with 1% formaldehyde and analyzed on a BD FACSCanto II (BD). γδTCR enrichment to synapse and conjugate formation

CD277 = experiment: dSTORM super-resolution imaging of CD277 clusters on HEK293FT cells; format: cell-based; conditions: 100 uM pamidronate vs medium, DBSCAN
Description: HEK293FT cells were plated in eight-well Lab-Tek chambers to adhere and treated with 100 uM pamidronate overnight. For super-resolution imaging, cells were labeled with AF647-CD277 at RT. After labeling, cells were washed with PBS and fixed with 4% PFA and 0.2% gluteraldehyde for 1-2 h. Prior to super-resolution imaging, 200 μL of fresh SRB (Super-resolution buffer: 50 mM Tris, 10 mM NaCl, 10% glucose, 168.8 U/mL glucose oxidase, 1404 U/mL catalase, 10 mM cysteamine hydrochloride, pH 8.0) was added to the well. dSTORM imaging was performed using an inverted microscope (IX71; Olympus America) equipped with an oil-immersion objective 1.45-NA total internal reflection fluorescence objective (U-APO 150×; Olympus America). […]
dSTORM images were analyzed and reconstructed with custom-built MATLAB functions as described previously (Smith et al 2010, Nat Methods: Huang et al 2011, Biomed Opt Express). […]
Finally, in order to understand whether the enhanced recruitment of low affinity CTE-C13 TCR in the synapse was a result of changes in CD277 clustering due to the PAM treatment, direct stochastic optical reconstruction microscopy (dSTORM), a localization-based super-resolution imaging technique that provides ˜20 nm resolution was performed. […] To quantify the images, a density-based spatial clustering application (DBSCAN) was utilized. […]

For `NCCC(O)(P(=O)(O)O)P(=O)(O)O` [pamidronate], the “intensity of TCR-YG-bead conjugation to Daudi cells” value (Daudi cells) was “did not change” and the “CD277 localization cluster size, density or number” value (CD277) was “did not dramatically change”.
